Test system: mice, streptozocin (STZ) model of type 1 diabetes
Assay: STZ model of diabetic neuropathy, von Frey
Format: in vivo, mouse
Method: Induction of Diabetic neuropathy (STZ model).
Diabetes was induced by a single i.p. injection of […] streptozocin (STZ) solution (100 μL/10 g, Sigma-Aldrich S0130, batch #WXBB7152V) in male seven-week-old C57BL/6J (Charles River) mice. Glycemia was tested before, and seven days after injection. All injected mice had blood glucose concentration >350 mg/dL from day seven and were used for analgesic testing of the compounds from day 14. One mouse had to be euthanized at seven days post injection. This experiment was performed by Phenotype Expertise, Marseilles, France - Pain and CNS behaviour CRO under supervision of Stéphane Gaillard, PhD (CEO). […]
The skin wound was closed with two medical clips (Michel Suture Clips, 7.5x1.75 mm, Angthos, 12040-01). Post-surgical analgesia included s.c. injection of 5 mg/kg carprofen (Carprosan vet, 50 mg/mL mixed 1:25 in sterile ddH2O, Dechra, Le Vet Beheer B.V., Netherlands, Batch: 050520) right after surgery and the […]
following day. […]
The test battery of the CIBP model was carried out 45 or 90 min after morphine and mPD5 administration respectively to accommodate the peak efficacy […]
Mechanically evoked pain (von Frey test).
Unless otherwise specified, von Frey occurred as described in the following. Animals were habituated to the experimental room for a minimum of 60 min before initiation of the experiment. Mechanical paw withdrawal threshold (PWT) was determined by von Frey measurements of both hind paws. Von Frey filaments ranging from 0.04 to 2 g (g = gram- […]
Filaments in ascending order were applied to the frontocentral plantar surface of the hind paws.
Mice were placed in PVC plastic boxes (11.5 cm x 14 cm) on a wire mesh and allowed minimum 20 min habituation prior of experiment initiation. Each von Frey hair was applied five times with adequate resting periods between each application and number of withdrawals recorded. The withdrawal threshold was determined as the von Frey filament eliciting at least three positive trials out of the five applications in two consecutive filaments. A positive trial was defined as sudden paw withdrawal, flinching and/or paw licking induced by the filament.
For the CIBP model, two habituation sessions were performed on separated days with mice placed in the von Frey equipment for 1-1.5 hours in the presence of the experimenter on day one and random von Frey pocking with the 0.6 g filament on day two. Von Frey monofilaments (North Coast Touch Test, North Coast Medical, Inc.) with target forces of 0.04g, 0.07g, 0.16g, […]
down method” (PWT=10Xf+kδ) starting with the 0.6 g filament. Positive response was defined as; withdrawal, shaking or grooming of paw following a 2-3 second stimulation. In case, of unclear response, stimulus was repeated after 10-15 seconds.
For the STZ model, the mechanical threshold response of the injected mice was measured with […]
injection of test compounds on day 14, mechanical threshold was measured at 1 hour, 2 hours, 4 hours and 6 hours and again on day 15. […]
Thermally evoked pain (Hargreaves test).
A baseline Hargreaves test was performed on day 0 before inflammatory pain was induced as described in section 2.13. In the Hargreaves test, the mouse was placed in a container on a glass table and left to habituate for at least 15 min. Using the Hargreaves apparatus, a heat beam from beneath was directed towards the hind paws of the mouse, and the paw withdrawal time

CCCCCCCCCCCCCC(=O)N(CCOCCOCCC(=O)N[C@@H](Cc1c[nH]cn1)C(=O)N[C@@H](Cc1c[nH]c2ccccc12)C(=O)N[C@@H](CC(C)C)C(=O)N[C@@H](CCCCN)C(=O)N[C@H](C(=O)O)C(C)C)CCOCCOCCC(=O)N[C@@H](Cc1c[nH]cn1)C(=O)N[C@@H](Cc1c[nH]c2ccccc12)C(=O)N[C@@H](CC(C)C)C(=O)N[C@@H](CCCCN)C(=O)N[C@H](C(=O)O)C(C)C [mPD5, myristoyl-NPEG4-(HWLKV)2]
paw withdrawal threshold, left paw, group mean (2 umol/kg, +1h, n = 10): 0.44
paw withdrawal threshold, left paw, group mean (2 umol/kg, +2h, n = 10): 0.37
paw withdrawal threshold, left paw, group mean (2 umol/kg, +4h, n = 10): 0.37
paw withdrawal threshold, left paw, group mean (2 umol/kg, +6h, n = 10): 0.25
paw withdrawal threshold, left paw, group mean (2 umol/kg, D15, n = 10): 0.17
paw withdrawal threshold, left paw, group mean (10 umol/kg, +1h, n = 10): 0.58
paw withdrawal threshold, left paw, group mean (10 umol/kg, +2h, n = 10): 0.6
paw withdrawal threshold, left paw, group mean (10 umol/kg, +4h, n = 10): 0.38
paw withdrawal threshold, left paw, group mean (10 umol/kg, +6h, n = 10): 0.21
paw withdrawal threshold, left paw, group mean (10 umol/kg, D15, n = 10): 0.28
extension of the effect at the highest dose (male mice, s.c. 10 μmol/kg): extended for another hour
effect on mechanical hypersensitivity (PWT) (male mice, s.c. 2 and 10 μmol/kg, the first hour after injection): significant relief of mechanical hypersensitivity
